Laboratory results from EP0322643A1, “Medicines containing as a mixture interferon and 1-desoxy-piperidinoses, process for their manufacture and their use” (BAYER AG, priority 1987, dated 1989).

Test system: Visna-Virus
Assay: Visna virus test: inhibition of virus-induced cytopathic effect in infected sheep fibroblast cell cultures
Assay type: cell-based
Parameters: key to Antivirale Wirkung in der Zellkultur*: 3 = kompletter antiviraler Schutzeffekt; 100% Schutz der Zellen vor der Infektion; 2 = 50% Schutzeffekt der infizierten Zellkultur; 1- 10 - 20% Schutzeffekt der infizierten Zellkultur; 0 = komplette Zerstörung der infizierten Zellkultur
Conditions: for Antivirale Wirkung in der Zellkultur*: compound alone, Schafszellen
From the text: In Zellkulturen, die mit Visna-Virus infiziert sind, treten 5 bis 10 Tage nach der Infektion ausgeprägte virusinduzierte, zytopathische Effekte auf. Durch Behandlung der infizierten Zellkulturen mit den erfindungsgemäßen Kombinationen von Verbindungen der allgemeinen Formel (I) und Interferon konnte das Auftreten dieser zytopathischen Effekte verhindert werden.
Der Visna-Virus-Test wurde nach der Methode von 0. Narayan et al., Journal of Infectious Diseases 135, 5, 1977, 800 - 806 durchgeführt. Dazu wurden die erfindungsgemäßen Kombinationen von Verbindungen der allgemeinen Formel (I) und Interferon im Kulturmedium zu nicht zytotoxischen Konzentrationen verdünnt, und zwar in 96er Microtiterplatten. Anschließend wurden zu jeder Verdünnung der Wirkstoffe Schafsfibroblastenzellen (5 x 10⁴ Zellen pro Napf) in Kulturmedium zugeführt.
Jedes Näpfchen erhielt dann 50 µl einer Visna-Viruslösung mit einem Titer von ca. 2,5 x 10⁴ TCID₅₀ (TCID = tissue culture infectious dosis). Diese Virusdosis entspricht einer MOI (Multiplizität der Infektion) von ca. 0,05.
Unter diesen Infektionsbedingungen resultierte zwischen Tag 5 und Tag 10 in einer Infektionskontrolle ohne Substanz ein virusinduzierter, zytopathischer Effekt. Die infizierten und behandelten Zellen und die Kontrollzellen wurden 7 Tage bei 37°C, 5% CO₂ inkubiert.
Bei Auftreten des virusinduzierten zytopathogenen Effektes in der unbehandelten Viruskontrolle wurden die Kulturen mit Formalin fixiert und anschließend mit einer Giemsa-Lösung gefärbt. Die inhibitorische Konzentration (IC₅₀) wurde mikroskopisch als die Konzentration ermittelt, bei der der zytopathische Effekt um 50% gehemmt wurde, im Vergleich zur unbehandelten Viruskontrolle, die 100% Zellzerstörung aufwies.

SMILES: CC(C)c1ccc(NC(=O)CCN2C[C@@H](O)[C@@H](O)[C@H](O)[C@H]2CO)cc1 [3-(1,5-Didesoxy-1,5-imino-D-mannit-N-yl)-propionsäure-4-isopropyl-anilid]
- Reduktion der Konzentration der Einzelkomponenten um den Faktor (by combining both active substances, versus the single component alone): 30
- Antivirale Wirkung in der Zellkultur* (Konzentration der Testsubstanz 0,03 mg/ml): 2 (2 = 50% Schutzeffekt der infizierten Zellkultur)
- Antivirale Wirkung in der Zellkultur* (Konzentration der Testsubstanz 0,5 mg/ml): 3 (3 = kompletter antiviraler Schutzeffekt; 100% Schutz der Zellen vor der Infektion)
- Antivirale Wirkung in der Zellkultur* (Konzentration der Testsubstanz 0,06 mg/ml): 3 (3 = kompletter antiviraler Schutzeffekt; 100% Schutz der Zellen vor der Infektion)
- Antivirale Wirkung in der Zellkultur* (Konzentration der Testsubstanz 0,25 mg/ml): 3 (3 = kompletter antiviraler Schutzeffekt; 100% Schutz der Zellen vor der Infektion)
- Antivirale Wirkung in der Zellkultur* (Konzentration der Testsubstanz 0,001 mg/ml): 0
- Antivirale Wirkung in der Zellkultur* (Konzentration der Testsubstanz 1 mg/ml): 3 (3 = kompletter antiviraler Schutzeffekt; 100% Schutz der Zellen vor der Infektion)
- Antivirale Wirkung in der Zellkultur* (Konzentration der Testsubstanz 0,003 mg/ml): 0
- Antivirale Wirkung in der Zellkultur* (Konzentration der Testsubstanz 0,007 mg/ml): 0
- Antivirale Wirkung in der Zellkultur* (Konzentration der Testsubstanz 0,015 mg/ml): 1 (1- 10 - 20% Schutzeffekt der infizierten Zellkultur)
- Antivirale Wirkung in der Zellkultur* (Konzentration der Testsubstanz 0,125 mg/ml): 3 (3 = kompletter antiviraler Schutzeffekt; 100% Schutz der Zellen vor der Infektion)
